# Assay results from patent US20250214996A1, “SALTS AND SOLID FORMS OF AN ESTROGEN RECEPTOR ANTAGONIST” (Olema Pharmaceuticals, Inc., priority 2022, published 2025).
# Tests used:
# Assay type in all cases: physicochemical
# [1] = Slurry in isopropanol for 1 day (XRPD)
# [2] = Water solubility at RT, 24 hours, HPLC/pH/XRPD
# Protocol: The HPLC method used for solubility measurements is summarized below:
# Water solubility was measured in water at RT to evaluate solubility and disproportionation risk. […] After centrifugation, supernatants were collected for HPLC and pH tests, and wet cakes were collected for XRPD characterization.
# [3] = Competitive slurry of Fumarate Form E and Fumarate Form A Anhydrate (XRPD)
# Protocol: Competitive slurry experiments were performed with Compound 1 Fumarate Form E and Compound 1 Fumarate Form A Anhydrate, as follows:
# Experiment #1: Compound 1 Fumarate Form E (100 mg), Compound 1 Fumarate Form A Anhydrate (100 mg), and isopropanol (2 mL) were added into two 8-mL vials and mixed well in a shaker at 25° C. and 40° C., respectively. Samples for analysis were taken at 24 h and 72 h.
# Experiment #2: Compound 1 Fumarate Form E (100 mg), Compound 1 Fumarate Form A Anhydrate (100 mg), and water (2 mL) were added into two 8-mL vials and mixed well in a shaker at 25° C. and 40° C., respectively. Samples for analysis were taken at 24 h and 72 h.
# Experiment #3: Compound 1 Fumarate Form E (100 mg), Compound 1 Fumarate Form A Anhydrate (100 mg), and ethyl acetate (2 mL) were added into two 8-mL vials and mixed well in a shaker at 25° C. and 40° C., respectively. Samples for analysis were taken at 24 h and 72 h.
# [4] = Dynamic vapor sorption (DVS) hygroscopicity
# Protocol: Dynamic Vapor Sorption (DVS) was measured by a SMS (Surface Measurement Systems) DVS Intrinsic. Parameters for DVS test are listed below:
# Alternatively, DVS was performed using Intrinsic DVS ([…], UK). About 30-50 mg of sample was placed in a sample basked and hung in the measuring chamber. For an isotherm test, the chamber temperature is maintained by a water bath at a constant 25±1° C. The sample was tested at a targeted RH from 0 to 90% full cycle in step mode. The analysis was performed in 10% RH increments. Time duration at each RH was set as 60 min so that the sample could reach equilibrium with the chamber environment. Data were collected in 20 s increments.
# A DVS isotherm plot was collected at 25° C. to investigate the solid form stability as a function of humidity. For Compound 1 Fumarate Form A Anhydrate, solids were pre-equilibrated at 0% RH to remove the unbounded solvent or water before the hygroscopicity experiment was started.
# [5] = Stability in oven at 60° C. for two weeks
# Protocol: Amorphous Compound 1, Compound 1 Fumarate Form E, and Compound 1 Fumarate Form A Anhydrate were placed in an oven at 60° C. for two weeks to evaluate their stability.
# [6] = Solubility by gravimetric method; conditions: H2O, 25° C.
# Protocol: Solubility studies of Compound 1 and Compound 1 Fumarate in different solvents at 25° C. were performed. Solubility was measured by the dynamic method and gravimetric method.
# Gravimetric method: Excess solids and a certain amount of solvent were added 8 mL vials, stirred for 24 hours, and filtered.
compound,measurement,setting,value
CCCN1CC(Oc2ccc([C@@H]3c4[nH]c5ccccc5c4C[C@@H](C)N3CC(C)(C)F)cc2)C1.O=C(O)/C=C/C(=O)O [Compound 1 Fumarate Form A Anhydrate],form after slurrying (XRPD),[1],No change in form
same,Purity,[2]; HPLC after 24 hours in water at RT,~100%
same,pH,[2]; supernatant after 24 hours in water at RT,5.24
same,Solubility in Water,"[2]; water, RT, 24 hours, stirring at 400 rpm",2230 µg/mL
same,Form Change after 24 h?,[2]; wet cake XRPD after 24 hours in water at RT,No
same,competitive slurry outcome (XRPD),"[3]; ethyl acetate, 72 h at 25° C. or 40° C.",a mixture of Compound 1 Fumarate Form E and Compound 1 Fumarate Form A Anhydrate remained
same,competitive slurry outcome (XRPD),"[3]; isopropanol, 24 h at 25° C. or 40° C.",completely transformed into Compound 1 Fumarate Form E
same,competitive slurry outcome (XRPD),"[3]; water, 72 h at 25° C. or 40° C.",a mixture of Compound 1 Fumarate Form E and Compound 1 Fumarate Form A Anhydrate remained
same,hygroscopicity by DVS,[4]; DVS,non-hygroscopic
same,water uptake up to 80% RH,[4]; DVS isotherm at 25° C.,less than 0.20%
same,Form Change after DVS?,[4]; XRPD before and after DVS,No
same,Hygroscopicity (%)* (class),[4]; based on water uptake at 25° C./80% RH,Non-hygroscopic
same,Hygroscopicity (%)* (water uptake),[4]; water uptake at 25° C./80% RH,(0.108) %
same,HPLC Purity (%) Starting,[5]; before storage,99.58%
same,XRPD,[5]; form after oven at 60° C. for two weeks,No change
same,HPLC Purity (%) 60° C.,[5]; oven at 60° C. for two weeks,99.54%
same,HPLC Purity (%) Degradation,[5]; oven at 60° C. for two weeks,−0.04%
same,stability relative to Amorphous Compound 1,[5]; oven at 60° C. for two weeks,improved stability
same,Solubility,[6],6500 µg/mL
